Tests used:
[1] = system: BRCA1 mRNA expression in MDA-MB-231 cells; experiment: qRT-PCR assay: BRCA1 mRNA expression in MDA-MB-231; assay type: cell-based, human; conditions: Homo sapiens, MDA-MB-231, Inhibition of BRCA1 mRNA expression in MDA-MB-231 cells; median; read-out: RTqPCR-MDA-MB-231, IC50, BRCA1 (median)
Outline: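 Seed 200,000 cells/well; 24 h later add compound, continuous exposure 24 h; extract RNA, 600 ng to cDNA; RT-qPCR, normalised to GAPDH.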

[2] = system: CAL-120, human breast adenocarcinoma cells; experiment: Proliferation assay CAL-120 (crystal violet, 4 days); assay type: cell-based; conditions: Homo sapiens, CAL-120, 96 h, CAL-120 cells, median, read-out: Prolif-CAL-120, IC50-[mol/l] (median)
Outline: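 IC50 from a 4-parameter fit of crystal violet absorbance (595 nm), scaled between a day-0 plate (0%) and untreated wells (100%). Cells grown in 10% FCS medium were exposed to test substances at 0.01-10 µmol/L for 4 days, 0.1% DMSO final.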

[3] = target: T1, CYCLIN K (nuclear staining in CAL-120 cells) (Homo sapiens, UniProt O75909); experiment: CYCLIN K nuclear protein level: immunofluorescence high content analysis (CAL-120); assay type: cell-based; conditions: 24 h, 50% reduction of nuclear CCNK staining intensity, median, read-out: CYCLIN K degradation IF, DC50-[mol/l] (median)
T1 construct: endogenous in cells; host or cells: CAL-120 human breast cancer cells (DSMZ ACC 459)
Outline: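 Readout is automated confocal image analysis of nuclear cyclin K immunofluorescence (Hoechst nuclei) after PFA fixation. Cells were CAL-120, exposed to compound dose-response 24 h at 37 °C; values are DC50 for halving nuclear CCNK signal relative to DMSO and control wells.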

T1 sequence (O75909 whole entry): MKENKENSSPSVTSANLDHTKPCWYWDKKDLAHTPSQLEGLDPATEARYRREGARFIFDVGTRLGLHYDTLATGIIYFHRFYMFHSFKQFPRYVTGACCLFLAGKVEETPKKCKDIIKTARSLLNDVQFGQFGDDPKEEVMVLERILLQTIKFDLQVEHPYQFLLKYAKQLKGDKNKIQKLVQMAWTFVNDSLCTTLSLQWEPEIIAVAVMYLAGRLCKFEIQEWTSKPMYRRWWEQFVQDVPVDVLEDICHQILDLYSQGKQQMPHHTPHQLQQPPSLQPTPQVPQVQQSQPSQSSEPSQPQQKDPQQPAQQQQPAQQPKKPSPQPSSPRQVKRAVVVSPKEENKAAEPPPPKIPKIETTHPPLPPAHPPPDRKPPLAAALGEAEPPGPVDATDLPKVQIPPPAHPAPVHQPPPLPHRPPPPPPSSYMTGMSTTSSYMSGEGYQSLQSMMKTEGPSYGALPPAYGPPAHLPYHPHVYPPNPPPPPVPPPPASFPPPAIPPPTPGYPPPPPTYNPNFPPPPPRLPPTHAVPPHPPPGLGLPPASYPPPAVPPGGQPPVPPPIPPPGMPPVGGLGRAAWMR
T1 sequence (Q9NYV4 whole entry partner): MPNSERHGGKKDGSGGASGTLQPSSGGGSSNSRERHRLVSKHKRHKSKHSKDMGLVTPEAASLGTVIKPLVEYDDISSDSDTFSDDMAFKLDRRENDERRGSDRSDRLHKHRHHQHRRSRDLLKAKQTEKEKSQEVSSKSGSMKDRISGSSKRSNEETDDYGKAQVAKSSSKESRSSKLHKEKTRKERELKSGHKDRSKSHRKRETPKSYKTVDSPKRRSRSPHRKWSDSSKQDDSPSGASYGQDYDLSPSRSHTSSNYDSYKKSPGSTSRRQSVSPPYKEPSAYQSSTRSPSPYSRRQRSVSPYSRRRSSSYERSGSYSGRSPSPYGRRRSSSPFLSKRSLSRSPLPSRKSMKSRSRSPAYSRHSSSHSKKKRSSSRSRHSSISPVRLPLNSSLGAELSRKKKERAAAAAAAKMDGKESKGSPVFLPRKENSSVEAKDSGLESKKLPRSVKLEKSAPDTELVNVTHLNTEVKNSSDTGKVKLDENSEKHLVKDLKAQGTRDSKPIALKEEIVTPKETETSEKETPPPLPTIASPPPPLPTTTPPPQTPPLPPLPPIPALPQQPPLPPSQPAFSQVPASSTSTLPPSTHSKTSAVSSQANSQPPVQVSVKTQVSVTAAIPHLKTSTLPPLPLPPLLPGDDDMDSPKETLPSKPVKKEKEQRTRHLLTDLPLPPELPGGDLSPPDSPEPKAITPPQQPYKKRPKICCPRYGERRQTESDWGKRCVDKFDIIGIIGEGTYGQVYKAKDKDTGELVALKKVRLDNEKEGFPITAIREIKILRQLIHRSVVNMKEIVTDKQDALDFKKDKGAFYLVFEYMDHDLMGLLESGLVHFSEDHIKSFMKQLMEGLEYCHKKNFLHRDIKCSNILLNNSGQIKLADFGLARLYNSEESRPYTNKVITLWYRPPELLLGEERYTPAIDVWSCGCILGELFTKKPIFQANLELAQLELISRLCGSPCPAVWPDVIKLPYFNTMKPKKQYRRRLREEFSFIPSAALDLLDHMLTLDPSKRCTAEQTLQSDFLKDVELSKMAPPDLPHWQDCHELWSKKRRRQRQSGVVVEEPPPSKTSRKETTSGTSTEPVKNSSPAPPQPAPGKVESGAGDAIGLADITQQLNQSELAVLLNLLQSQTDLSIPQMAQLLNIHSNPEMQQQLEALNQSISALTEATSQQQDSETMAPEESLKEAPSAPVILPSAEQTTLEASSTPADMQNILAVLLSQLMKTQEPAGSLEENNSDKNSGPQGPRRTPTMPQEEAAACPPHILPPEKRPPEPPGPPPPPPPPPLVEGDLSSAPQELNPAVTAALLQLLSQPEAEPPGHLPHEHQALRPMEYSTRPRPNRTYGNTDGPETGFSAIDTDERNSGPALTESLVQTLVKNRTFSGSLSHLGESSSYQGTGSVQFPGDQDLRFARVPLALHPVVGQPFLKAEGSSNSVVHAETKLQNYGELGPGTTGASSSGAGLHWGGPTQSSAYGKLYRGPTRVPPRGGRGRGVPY

SMILES | IC50 [1] [nM] | IC50 [2] [nM] | DC50 [3] [nM]
c1ccc2[nH]c(CNc3nc(N4CCOCC4)nc4c(C5CCC5)cnn34)nc2c1 [Example 263, N-[(1H-benzimidazol-2-yl)methyl]-8-cyclobutyl-2-(morpholin-4-yl)pyrazolo[1,5-a][1,3,5]triazin-4-amine] | 28.8 | 28.9 | 1.82
Brc1cnn2c(NCc3nnc(-c4ccccc4)[nH]3)nc(N3CCOCC3)nc12 [Example 24, 8-bromo-2-(morpholin-4-yl)-N-[(5-phenyl-4H-1,2,4-triazol-3-yl)methyl]pyrazolo[1,5-a][1,3,5]triazin-4-amine] | 10 | 35.7 | 1.67
Fc1ccc2[nH]c(CNc3nc(N4CCOCC4)nc4c(C5CC5(F)F)cnn34)nc2c1 (single isomer, unassigned) [Example 314, 8-[(1R or S)-2,2-difluorocyclopropyl]-N-[(5-fluoro-1H-benzimidazol-2-yl)methyl]-2-(morpholin-4-yl)pyrazolo[1,5-a][1,3,5]triazin-4-amine] | 35.7 | 13 | 1.11
Fc1cccc2[nH]c(CNc3nc(N4C[C@H]5CC[C@@H](C4)N5)nc4c(C5CC5)cnn34)nc12 [Example 296, 8-cyclopropyl-2-[(1R,5S)-3,8-diazabicyclo[3.2.1]octan-3-yl]-N-[(4-fluoro-1H-benzimidazol-2-yl)methyl]pyrazolo[1,5-a][1,3,5]triazin-4-amine] | 1.27 | 1.52 | 1.15
CN(CC(C)(C)O)c1nc(NCc2nc3cc(Cl)c(Cl)cc3[nH]2)n2ncc(C3CC3)c2n1 [Example 306, 1-[(8-cyclopropyl-4-{[(5,6-dichloro-1H-benzimidazol-2-yl)methyl]amino}pyrazolo[1,5-a][1,3,5]triazin-2-yl)(methyl)amino]-2-methylpropan-2-ol] | 6.94 | 7.21 | 0.642
c1ccc2[nH]c(CNc3nc(N4C[C@@H]5C[C@H]4CO5)nc4c(C5CC5)cnn34)nc2c1 [Example 254, N-[(1H-benzimidazol-2-yl)methyl]-8-cyclopropyl-2-[(1S,4S)-2-oxa-5-azabicyclo[2.2.1]heptan-5-yl]pyrazolo[1,5-a][1,3,5]triazin-4-amine] | 60.5 | 87.7 | 4.17
FC(F)(F)Cc1cnn2c(NCc3nc4cc(Cl)c(Cl)cc4[nH]3)nc(N3CCOCC3)nc12 [Example 302, N-[(5,6-dichloro-1H-benzimidazol-2-yl)methyl]-2-(morpholin-4-yl)-8-(2,2,2-trifluoroethyl)pyrazolo[1,5-a][1,3,5]triazin-4-amine] | 9.06 | 8.98 | 1.66
COc1ccc2[nH]c(CNc3nc(N4CCOCC4)nc4c(C(F)(F)F)cnn34)nc2c1 [Example 257, N-[(5-methoxy-1H-benzimidazol-2-yl)methyl]-2-(morpholin-4-yl)-8-(trifluoromethyl)pyrazolo[1,5-a][1,3,5]triazin-4-amine] | 6.97 | 10.8 | 0.864
CC1(N)CCN(c2nc(NCc3nc4ccccc4[nH]3)n3ncc(Br)c3n2)CC1 [Example 290, 2-(4-amino-4-methylpiperidin-1-yl)-N-[(1H-benzimidazol-2-yl)methyl]-8-bromopyrazolo[1,5-a][1,3,5]triazin-4-amine] | 17.6 | 20.3 | 8.58
N[C@@H]1[C@@H]2C[C@H]1CN(c1nc(NCc3nc4ccccc4[nH]3)n3ncc(Br)c3n1)C2 [Example 289, 2-[(1R,5S,6s)-6-amino-3-azabicyclo[3.1.1]heptan-3-yl]-N-[(1H-benzimidazol-2-yl)methyl]-8-bromopyrazolo[1,5-a][1,3,5]triazin-4-amine] | 2.91 | 3.08 | 1.76
FC1(F)CC1c1cnn2c(NCc3nc4ccccc4[nH]3)nc(N3CCOCC3)nc12 (stereo not drawn) [Example 279, N-[(1H-benzimidazol-2-yl)methyl]-8-(2,2-difluorocyclopropyl)-2-(morpholin-4-yl)pyrazolo[1,5-a][1,3,5]triazin-4-amine] | 12 | 17.2 | 3.78
FC(F)(F)Cc1cnn2c(NCc3nc4cc(Cl)ccc4[nH]3)nc(N3CCOCC3)nc12 [Example 299, N-[(5-chloro-1H-benzimidazol-2-yl)methyl]-2-(morpholin-4-yl)-8-(2,2,2-trifluoroethyl)pyrazolo[1,5-a][1,3,5]triazin-4-amine] | 8.86 | 4.71 | 0.484

The remaining compounds from weak to strong by IC50 [1], led by results:

IC50 [1] [nM] | IC50 [2] [nM] | DC50 [3] [nM] | SMILES
6.9 | 3.66 | 0.347 | CN(CC(C)(C)O)c1nc(NCc2nc3cc(F)c(Cl)cc3[nH]2)n2ncc(C3CC3)c2n1 [Example 317, 1-[(4-{[(6-chloro-5-fluoro-1H-benzimidazol-2-yl)methyl]amino}-8-cyclopropylpyrazolo[1,5-a][1,3,5]triazin-2-yl)(methyl)amino]-2-methylpropan-2-ol]
6.41 | 6.92 | 0.19 | Brc1cnn2c(NCc3nc4ccccc4[nH]3)nc(N3C[C@@H]4C[C@H]3CN4)nc12 [Example 270, N-[(1H-benzimidazol-2-yl)methyl]-8-bromo-2-[(1S,4S)-2,5-diazabicyclo[2.2.1]heptan-2-yl]pyrazolo[1,5-a][1,3,5]triazin-4-amine]
5.55 | 9.79 | 0.933 | c1ccc2[nH]c(CNc3nc(N4CCNCC4)nc4c(C5CC5)cnn34)nc2c1 [Example 247, N-[(1H-benzimidazol-2-yl)methyl]-8-cyclopropyl-2-(piperazin-1-yl)pyrazolo[1,5-a][1,3,5]triazin-4-amine]
4.81 | 7.25 | 2.55 | CN(CC(C)(C)O)c1nc(NCc2nc3c(F)cccc3[nH]2)n2ncc(C3CC3)c2n1 [Example 295, 1-[(8-cyclopropyl-4-{[(4-fluoro-1H-benzimidazol-2-yl)methyl]amino}pyrazolo[1,5-a][1,3,5]triazin-2-yl)(methyl)amino]-2-methylpropan-2-ol]
4.79 | 7.9 | 0.546 | Fc1cccc2[nH]c(CNc3nc(N4CCOCC4)nc4c(CC(F)(F)F)cnn34)nc12 [Example 303, N-[(4-fluoro-1H-benzimidazol-2-yl)methyl]-2-(morpholin-4-yl)-8-(2,2,2-trifluoroethyl)pyrazolo[1,5-a][1,3,5]triazin-4-amine]
4.12 | 4.05 | 1.44 | CN1CCN(c2nc(NCc3nc4cc(Cl)ccc4[nH]3)n3ncc(C(F)(F)F)c3n2)CC1 [Example 298, N-[(5-chloro-1H-benzimidazol-2-yl)methyl]-2-(4-methylpiperazin-1-yl)-8-(trifluoromethyl)pyrazolo[1,5-a][1,3,5]triazin-4-amine]
3.42 | 8.13 | 0.892 | CN1CCN(c2nc(NCc3nc4cc(F)c(F)cc4[nH]3)n3ncc(C4CC4)c3n2)CC1 [Example 311, 8-cyclopropyl-N-[(5,6-difluoro-1H-benzimidazol-2-yl)methyl]-2-(4-methylpiperazin-1-yl)pyrazolo[1,5-a][1,3,5]triazin-4-amine]
2.8 | 3.01 | 0.643 | CN(CC(C)(C)O)c1nc(NCc2nc3c(F)c(F)ccc3[nH]2)n2ncc(C3CC3)c2n1 [Example 292, 1-[(8-cyclopropyl-4-{[(4,5-difluoro-1H-benzimidazol-2-yl)methyl]amino}pyrazolo[1,5-a][1,3,5]triazin-2-yl)(methyl)amino]-2-methylpropan-2-ol]
2.01 | 3.88 | 0.303 | FC(F)(F)c1cnn2c(NCc3nc4cc(Cl)ccc4[nH]3)nc(N3CCOCC3)nc12 [Example 275, N-[(5-chloro-1H-benzimidazol-2-yl)methyl]-2-(morpholin-4-yl)-8-(trifluoromethyl)pyrazolo[1,5-a][1,3,5]triazin-4-amine]
1.92 | 4.89 | 3.21 | Fc1cccc2[nH]c(CNc3nc(N4CCOCC4)nc4c(C(F)(F)F)cnn34)nc12 [Example 274, N-[(4-fluoro-1H-benzimidazol-2-yl)methyl]-2-(morpholin-4-yl)-8-(trifluoromethyl)pyrazolo[1,5-a][1,3,5]triazin-4-amine]
1.49 | 6.6 | 0.11 | N[C@@H]1CN(c2nc(NCc3nc4ccccc4[nH]3)n3ncc(Br)c3n2)CC12CC2 [Example 251, 2-[(7S)-7-amino-5-azaspiro[2.4]heptan-5-yl]-N-[(1H-benzimidazol-2-yl)methyl]-8-bromopyrazolo[1,5-a][1,3,5]triazin-4-amine]
0.97 | 2.8 | 0.516 | Fc1cc2nc(CNc3nc(N4CCOCC4)nc4c(C5CC5)cnn34)[nH]c2cc1F [Example 318, 8-cyclopropyl-N-[(5,6-difluoro-1H-benzimidazol-2-yl)methyl]-2-(morpholin-4-yl)pyrazolo[1,5-a][1,3,5]triazin-4-amine]

— patent US20230117034A1, “PYRAZOLOTRIAZINES” (Bayer Aktiengesellschaft, priority 2019, published 2023)
